# Experimental data reported in article PMC4773034 (Journal of biomolecular screening, 2012).
# Target: EndA(H160G) (Streptococcus pneumoniae serotype 4, UniProt P0A3S3, H160G)
# Test: PicoGreen nuclease assay
# Assay type: biochemical
# Details: 25 mM imidazole, 30 min reaction, top concentration 30 µM
row,SMILES,IC50 (stated in words)
1,NC(Cc1cc(O)c(O)cc1O)C(=O)O (racemic) [6-hydroxy-DL-DOPA],nanomolar range
2,CC(C)c1ccc2c(c1)c(SC(C)(C)C)c(CC(C)(C)C(=O)[O-])n2Cc1ccc(Cl)cc1.[Na+] [MK-886],nanomolar range
3,O=c1c(O)c(-c2cc(O)c(O)c(O)c2)oc2cc(O)cc(O)c12 [Myricetin],nanomolar range
